According to BindingDB's records for doi:10.1038/sj.bjp.0702751 (Cerebrus, 1999):

Experiments:
[1] = molecular target: 5-hydroxytryptamine receptor 2B (Homo sapiens, UniProt P41595)
[2] = molecular target: T1, 5-hydroxytryptamine receptor 2C (Homo sapiens, UniProt P28335)
T1 sequence (P28335 whole entry): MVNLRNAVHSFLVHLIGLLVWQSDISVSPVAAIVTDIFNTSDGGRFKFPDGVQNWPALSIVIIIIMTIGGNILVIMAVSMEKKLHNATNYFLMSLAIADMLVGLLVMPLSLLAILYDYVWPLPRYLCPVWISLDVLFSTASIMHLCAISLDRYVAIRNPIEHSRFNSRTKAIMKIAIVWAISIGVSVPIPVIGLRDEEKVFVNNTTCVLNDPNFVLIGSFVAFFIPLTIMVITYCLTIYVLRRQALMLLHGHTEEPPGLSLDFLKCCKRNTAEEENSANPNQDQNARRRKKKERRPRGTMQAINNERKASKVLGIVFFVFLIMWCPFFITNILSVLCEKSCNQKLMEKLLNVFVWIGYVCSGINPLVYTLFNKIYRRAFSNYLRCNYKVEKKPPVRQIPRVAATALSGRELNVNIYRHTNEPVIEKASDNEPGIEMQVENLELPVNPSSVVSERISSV

Chain of 5-hydroxytryptamine receptor 2B (P41595 whole entry): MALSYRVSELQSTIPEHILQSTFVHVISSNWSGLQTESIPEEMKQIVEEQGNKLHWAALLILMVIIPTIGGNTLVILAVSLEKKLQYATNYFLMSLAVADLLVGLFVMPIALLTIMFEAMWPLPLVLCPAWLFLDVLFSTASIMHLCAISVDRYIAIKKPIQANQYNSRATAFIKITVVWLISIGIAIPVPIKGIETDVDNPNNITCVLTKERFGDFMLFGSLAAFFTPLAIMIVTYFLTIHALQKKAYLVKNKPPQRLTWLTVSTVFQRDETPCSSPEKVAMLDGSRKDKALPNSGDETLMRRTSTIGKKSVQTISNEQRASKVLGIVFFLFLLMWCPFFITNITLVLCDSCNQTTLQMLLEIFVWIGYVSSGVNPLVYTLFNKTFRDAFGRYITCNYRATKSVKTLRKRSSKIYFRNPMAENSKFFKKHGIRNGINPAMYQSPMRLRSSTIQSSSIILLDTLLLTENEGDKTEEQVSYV

| SMILES | Ki [1] [nM] | Ki [2] [nM] |
| --- | --- | --- |
| CCCN(CCC)C1CCc2cccc(O)c2C1 (configuration not stated) | 891 |  |
| Cc1[nH]c2ccc(O)cc2c1CCN | 170 | 1200 |
| NCCc1c[nH]c2ccccc12 [1H-indole-3-ethanamine] | 29.5 | 45.7 |
| COc1cc(CC(C)N)c(OC)cc1Br (stereo not drawn) [2-(4-Bromo-2,5-dimethoxy-phenyl)-1-methyl-ethylamine((-)-DOB)] | 2.88 |  |
| FC(F)(F)c1ccc(N2CCNCC2)nc1Cl [2-Chloro-3-(trifluoromethyl)-6-(1-piperazinyl)pyridine] | 525 | 97.7 |
| c1ccc2nc(N3CCNCC3)ccc2c1 [2-Piperazin-1-yl-quinoline (Quipazine)] | 178 | 339 |
| Cn1cc(CCN)c2cc(O)ccc21 [5-HT,omega-N-Me] | 2 | 11.5 |
| Clc1cncc(N2CCNCC2)n1 [L-630,571] | 295 | 214 |
| CC(N)Cn1ccc2cc(F)c(Cl)cc21 (configuration not stated) [NSC_3045226] | 0.89 | 32.4 |
| CC(N)Cc1c[nH]c2ccc(OCc3cccs3)cc12 (configuration not stated) [NSC_5311036] |  | 93.3 |
| C[C@H](N)Cc1cccc(C(F)(F)F)c1 [Norfenfluramine (+)] | 8.71 | 170 |
| COc1ccc2c(c1[C@@H]1CCNC1)CCC2 [ORG-37684] | 11 | 6.76 |
| CN1CCc2cc(Cl)c(O)cc2[C@@H](c2ccccc2)C1 [SCH 23390,R(+)] | 70.8 | 40.7 |
| FC(F)(F)c1cccc(N2CCNCC2)c1 [TFMPP] | 288 |  |
| NCCc1c[nH]c2ccc(C(N)=O)cc12 [[3H]-5-carboxamidotryptamine] | 15.5 |  |
| COc1cc(CC(C)N)c(OC)cc1I (configuration not stated) [[125I]2,5-dimethoxy-4-iodoamphetamine] | 1.41 | 7.94 |
